Experimental data from ChEMBL document CHEMBL1145554, “First CoMFA characterization of vesamicol analogs as ligands for the vesicular acetylcholine transporter” (J Med Chem, 2008).

Assay: Displacement of [3H]vesamicol from VAChT receptor in torpedo electrical organ synaptic vesicle

Structure (SMILES) | Ki [nM]
O=C(CN1C2CCC1CC(c1ccccc1)C2)c1ccc(F)cc1 (stereo not drawn) | 3400
O[C@@H]1CCCC[C@H]1N1CCC(c2ccccc2)CC1 (relative stereo) [VESAMICOL] | 7.6
O[C@@H]1C[C@H]2CCCC[C@@H]2C[C@H]1N1CCC(c2ccccc2)CC1 | 0.009
